Assay results taken from PMC8148066 (Acta Pharmaceutica Sinica. B, 2021).

Tests used:
gut microbiota = assay: FLZ-to-M1 conversion in colonic contents with CYP51 inhibitors; assay type: in vitro ADME, mice; conditions: FLZ 2 μg/mL with CYP51 inhibitor 8 and 20 μg/mL, 6 h
CYP51 in gut microbiota = assay: CYP51 activity in colonic contents; assay type: biochemical, mice; conditions: inhibitor 8 and 20 μg/mL, 6 h, vs. Control

SMILES	Concentration of FLZ in the colonic contents (gut microbiota)	Concentration of M1 in the colonic contents (gut microbiota)	Ratio of M1/FLZ in gut microbiota (gut microbiota)	Activity of CYP51 in the reaction system of colonic contents (CYP51 in gut microbiota)
CCC(C)n1ncn(-c2ccc(N3CCN(c4ccc(OCC5COC(Cn6cncn6)(c6ccc(Cl)cc6Cl)O5)cc4)CC3)cc2)c1=O (stereo not shown) [itraconazole]	increased	decreased	reduced	inhibited
C[C@@H](c1ncncc1F)[C@](O)(Cn1cncn1)c1ccc(F)cc1F [voriconazole]	increased	decreased		inhibited
